Legend:
P-glycoprotein (Pgp) = P-glycoprotein (Pgp) efflux assay; type: in vitro ADME; conditions: mouse; for Papp: PAMPA, read-out: PgP Transport mouse permeability; for efflux ratio: not told, read-out: PgP Transport mouse apical efflux ratio
Method: (§1) Compounds 1–3 were characterized in a hybrid reporter gene assay for their agoniztic effect on human nuclear receptors PPARα/γ/δ, RXRα, FXRα, RARα in HEK293T cells. Compound 1 was tested in an isothermal titration calorimetry (ITC) assay to measure direct binding affinity to the ligand-binding domain of PPARγ. ADME properties were measured in standardized assays at Roche.
(§2) SI11Absorption Distribution Metabolism and Excretion and Toxicity Data
(§3) To assess the drug-like characteristics of the newly designed PPAR modulators, a series of tests were conducted covering various aspects of absorption, distribution, metabolism, and excretion (ADME) properties. Specifically, these assessments included the parallel artificial membrane permeability assay (PAMPA) with permeation co- […]
(§4) efficients ([…]), LogD measurements, microsomal clearance, hepatocyte clearance, P-glycoprotein (Pgp) efflux ratio and binding and the unbound free fraction. […]
(§5) Table S14: Absorption distribution metabolism and excretion (ADME) properties of compounds 1 and 2. The […]
(§6) values for […], LogD, protein binding, P-glycoprotein (Pgp) efflux ratio and permeability, and hepato-cyte clearance are presented as the mean and standard deviation, with a sample size of N = 3, i.e., 3 technical replicates each. The values for microsomal clearance and CYP-inhibition represent single point measurements. […]
(§7) PgP Transport mouse apical efflux ratio - 1.6 1.2
(§8) PgP Transport mouse permeability (nm·sec−1) - 15 60 […]

[1] = Lipophilicity (LogD pH 7.4); type: physicochemical
Method: as §1, §2, §3, §4, §5, §6

[2] = Hepatocyte clearance, human; type: in vitro ADME; parameters: Hepatocyte clearance human: unit not given here; conditions: for Hepatocyte clearance human: human hepatocytes, as printed in Table S14
Method: as §1, §2, §3, §4, §5
values for […], LogD, protein binding, P-glycoprotein (Pgp) efflux ratio and permeability, and hepato-cyte clearance are presented as the mean and standard deviation, with a sample size of N = 3, i.e., 3 technical replicates each. The values for microsomal clearance and CYP-inhibition represent single point measurements.
Microsomal clearance, human (µL·min−1·mg−1 protein) ≥10 ≥10 ≥10
Microsomal clearance, mouse (µL·min−1·mg−1 protein) ≥10 ≥10 ≥10
Microsomal clearance, rat (µL·min−1·mg−1 protein) ≥10 ≥10 ≥10
Protein binding human (% free fraction) (%) - 0.21 0.42
as §7, §8

CYP2B6 = CYP2B6 (Homo sapiens, UniProt P20813); test: CYP inhibition dose-response; type: in vitro ADME; conditions: substrate BUPROPION
Sequence of CYP2B6 (P20813 whole entry): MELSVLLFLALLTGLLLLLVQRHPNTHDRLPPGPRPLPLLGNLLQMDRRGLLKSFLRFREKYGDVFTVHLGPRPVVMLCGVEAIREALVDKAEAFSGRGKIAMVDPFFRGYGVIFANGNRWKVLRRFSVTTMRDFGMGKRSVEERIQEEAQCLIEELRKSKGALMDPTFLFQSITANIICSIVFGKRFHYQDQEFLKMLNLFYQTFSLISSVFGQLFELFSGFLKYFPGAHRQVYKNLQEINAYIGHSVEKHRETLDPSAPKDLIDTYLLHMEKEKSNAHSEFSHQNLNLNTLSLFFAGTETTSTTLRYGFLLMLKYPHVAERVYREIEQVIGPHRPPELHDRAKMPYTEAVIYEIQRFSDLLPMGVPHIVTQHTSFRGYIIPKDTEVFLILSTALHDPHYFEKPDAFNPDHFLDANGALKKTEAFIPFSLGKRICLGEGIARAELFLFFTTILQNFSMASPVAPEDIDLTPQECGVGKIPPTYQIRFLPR
Method: as §2, §3
(§9) efficients ([…]), LogD measurements, microsomal clearance, hepatocyte clearance, P-glycoprotein (Pgp) efflux ratio and binding and the unbound free fraction. Furthermore, the evaluation of inhibition po-tential against cytochrome P450 isoenzymes (CYP) proteins was investigated. For seven selected CYP proteins (i.e., Cyp3A4, Cyp1A2, Cyp2B6, Cyp2C9, Cyp2D6, Cyp2C19, and Cyp2C8) the half maximal inhibitory con-centration (IC50) was determined. (Table S15). […]
(§10) activity in the CYP assays was found.
(§11) Table S14: Absorption distribution metabolism and excretion (ADME) properties of compounds 1 and 2. […]
(§12) The values for microsomal clearance and CYP-inhibition represent single point measurements. […]
(§13) Molecule Enzyme Substrate IC50 (µM) […]

CYP2C19 = CYP2C19 (Homo sapiens, UniProt P33261); test: CYP inhibition dose-response; type: in vitro ADME; conditions: substrate S-MEPHENYTOIN
Sequence of CYP2C19 (P33261 whole entry): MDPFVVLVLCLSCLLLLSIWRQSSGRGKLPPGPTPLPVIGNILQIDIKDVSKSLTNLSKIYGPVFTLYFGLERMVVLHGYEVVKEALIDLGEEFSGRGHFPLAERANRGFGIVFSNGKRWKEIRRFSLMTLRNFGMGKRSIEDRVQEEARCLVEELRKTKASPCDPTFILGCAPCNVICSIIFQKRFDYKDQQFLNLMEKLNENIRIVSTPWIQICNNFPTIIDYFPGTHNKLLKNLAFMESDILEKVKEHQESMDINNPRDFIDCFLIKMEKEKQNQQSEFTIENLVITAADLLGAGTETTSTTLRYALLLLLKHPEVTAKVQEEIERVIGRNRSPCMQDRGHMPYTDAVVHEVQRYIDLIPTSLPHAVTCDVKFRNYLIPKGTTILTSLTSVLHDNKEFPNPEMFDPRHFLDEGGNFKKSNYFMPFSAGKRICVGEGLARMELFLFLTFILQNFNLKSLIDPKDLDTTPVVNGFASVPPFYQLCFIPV
Method: as §2, §3, §9, §10, §11, §12, §13

CYP1A2 = CYP1A2 (Homo sapiens, UniProt P05177); test: CYP inhibition dose-response; type: in vitro ADME; conditions: substrate PHENACETIN
Sequence of CYP1A2 (P05177 whole entry): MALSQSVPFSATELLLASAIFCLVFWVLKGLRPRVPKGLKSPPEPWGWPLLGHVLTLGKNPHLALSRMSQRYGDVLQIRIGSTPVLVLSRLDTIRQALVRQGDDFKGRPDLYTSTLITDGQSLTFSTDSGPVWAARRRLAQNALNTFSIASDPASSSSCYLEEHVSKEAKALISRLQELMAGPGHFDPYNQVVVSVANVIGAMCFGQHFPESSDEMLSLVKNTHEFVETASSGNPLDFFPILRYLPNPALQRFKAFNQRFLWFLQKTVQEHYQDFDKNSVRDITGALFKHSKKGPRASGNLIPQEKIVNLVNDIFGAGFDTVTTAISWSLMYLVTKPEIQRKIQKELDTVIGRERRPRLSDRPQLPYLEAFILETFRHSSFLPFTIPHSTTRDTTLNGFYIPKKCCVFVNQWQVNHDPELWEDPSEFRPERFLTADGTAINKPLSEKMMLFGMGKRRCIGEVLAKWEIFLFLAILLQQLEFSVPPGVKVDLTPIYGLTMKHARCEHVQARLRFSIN
Method: as §2, §3, §9, §10, §11, §12, §13

[3] = test system: GABA-A (BENZODIAZAPINE BINDING SITE); test: Safety off-target panel, binding; parameters: species or system Rat; conditions: 10 µM, single point
Description: (§14) Table S9-S12 list all targets, their species, inhibition (%) and assay type for the experiments conducted in the
(§15) off-targets. […] The numbers for mean
(§16) inhibition (%) represent single point measurements.
(§17) off-targets. […] The numbers for
(§18) mean inhibition (%) represent single point measurements.

PCP RECEPTOR = test: Safety off-target panel, binding; parameters: species or system Rat; conditions: 10 µM, single point
Description: as §14, §15, §16, §17, §18

[4] = test system: CA2+ CHANNEL (DILTIAZEM SITE); test: Safety off-target panel, binding; parameters: species or system Rat; conditions: 10 µM, single point
Description: as §14, §15, §16, §17, §18

Compound `Cc1nnc(-c2ccc(OCCCOc3ccc(CCC(=O)O)c(F)c3)c(F)c2)s1` [Compound 1] has a Papp (P-glycoprotein (Pgp)) of 1.5 ×10⁻⁶ cm/s, an efflux ratio (P-glycoprotein (Pgp)) of 1.6 and a logD [1] of 1.5. For the same compound, the “clearance rate in human hepatocytes” value [2] was 19 μL·min−1 10^6 cells−1, the Hepatocyte clearance human [2] was 19 and the IC50 (CYP2B6) was > 20 µM. For the same compound, the IC50 (CYP2C19) was > 20 µM, the IC50 (CYP1A2) was > 20 µM and the “Mean inhibition (%)” value [3] was 12.5%. For the same compound, the “Mean inhibition (%)” value (PCP RECEPTOR) was -12.0% and the “Mean inhibition (%)” value [4] was -4.7%.

Compound `COc1ccc(Oc2ccc3ncn(CCOc4ccc(CCC(=O)O)cc4)c3c2)cc1` [Compound 2] has a Papp (P-glycoprotein (Pgp)) of 6 ×10⁻⁶ cm/s, an efflux ratio (P-glycoprotein (Pgp)) of 1.2 and a logD [1] of 1.7. The “clearance rate in human hepatocytes” value [2] was 19 μL·min−1 10^6 cells−1, the Hepatocyte clearance human [2] was 19 and the IC50 (CYP2B6) was > 20 µM. The IC50 (CYP2C19) was > 20 µM, the IC50 (CYP1A2) was > 20 µM and the “Mean inhibition (%)” value [3] was 57.8%. For the same compound, the “Mean inhibition (%)” value (PCP RECEPTOR) was 11.8% and the “Mean inhibition (%)” value [4] was -11.7%.
